# How the values were obtained:
# MDA-MB-231 cells = assay: Growth inhibitory effect of NEK10 siRNA on cancer cells (methylene blue assay); assay type: cell-based; settings: MDA-MB-231 breast cancer cells; 72 hours after siRNA transfection; absorbance at 660 nm; control siRNA treatment group of first experiment = 100
# Protocol: NEK10 siRNA #1 and NEK10 siRNA #2 were confirmed to have growth inhibitory effects on cancer cells. Namely, a study was conducted by methylene blue assay to determine whether cell growth is inhibited by knocking down NEK10 variant gene by transfecting the cells with NEK10 siRNA #1 and NEK10 siRNA #2.
# MDA-MB-231 cells were transfected with each siRNA in the same manner as previously described (Confirmation of Expression Inhibitory Effect on NEK10 Variant mRNA) followed by culturing for 72 hours after transfection. After culturing, the medium was removed followed by the addition of 1000 μL of methanol and allowing to stand for 2 minutes at room temperature to fix the cells. After removing the methanol, 1000 μL of dye solution (0.05% methylene blue solution) were added followed by dyeing for 30 minutes. After washing three times with 4 mL of distilled water, 2 mL of a 3% HCl solution were added followed by measurement of the absorbance of methylene blue at 660 nm using a microplate reader (BioRad).
# The experiment was conducted in triplicate and the same experiment was repeated three times. The average triplicate value of the control siRNA treatment group of the first experiment was used as a control, the cell growth rates (%) were calculated according to the following Equation (5) using the average triplicate values of the siRNA treatment group of each experiment. […]
# NEK10 variant mRNA = assay: Expression inhibitory effect on NEK10 variant mRNA (real-time PCR using SYBR Green after siRNA transfection); assay type: cell-based, human; settings: breast cancer cell line MDA-MB-231; siRNA (20 nM) with Lipofectamine RNAiMAX; 72 hours culture after transfection; first control siRNA treatment group = 100
# Source text: After carrying out siRNA treatment by transfecting cells with siRNA consisting of the combination of sense RNA consisting of the base sequence represented by SEQ ID NO: 2 and antisense RNA consisting of the base sequence represented by SEQ ID NO: 3 (to be referred to as NEK10 siRNA #1) and siRNA consisting of the combination of sense RNA consisting of the base sequence represented by SEQ ID NO: 4 and antisense RNA consisting of the base sequence represented by SEQ ID NO: 5 (to be referred to as NEK10 siRNA #2), NEK10 variant mRNA was measured by real-time PCR using SYBR™ Green to study the knockdown effects on NEK10 variant mRNA.
# Breast cancer cell line MDA-MB-231, which was confirmed to express NEK10 variant mRNA in Example 1, was transfected with control siRNA, NEK10 siRNA #1 or NEK10 siRNA #2, and NEK10 variant mRNA following siRNA treatment was measured by real-time PCR using SYBR™ Green to study the knockdown effects on NEK10 variant mRNA of each siRNA. The control siRNA was purchased from Invitrogen, and siRNA synthesized by Invitrogen was used for NEK10 siRNA #1 and NEK10 siRNA #2. […]
# Using 500 ng of the purified RNA, cDNA was prepared in the same manner as Reference Example 1 using the reverse transcriptase Superscript III (Invitrogen). Ct values were measured in the same manner as Reference Example 1 using 1 μL of the resulting cDNA as template. […]
Substance,cell growth rate (MDA-MB-231 cells) [%],percentage of NEK10 mRNA versus the control (NEK10 variant mRNA) [%]
"NEK10 siRNA #1: siRNA of sense RNA SEQ ID NO: 2 (5'-GAAAUCCUGUCAGAUGAUAACUUCA-3') and antisense RNA SEQ ID NO: 3 (antisense UGAAGUUAUCAUCUGACAGGAUUUC; RNA, backbone not given here)",34±14,11±0.5
"NEK10 siRNA #2: siRNA of sense RNA SEQ ID NO: 4 (5'-UCUGCCUUGUUUGUUCACCACUAUU-3') and antisense RNA SEQ ID NO: 5 (antisense AAUAGUGGUGAACAAACAAGGCAGA; RNA, backbone not given here)",58±17,86±7.4

# Reference: patent US20150064710A1, “METHOD FOR INHIBITING CELL GROWTH, NUCLEIC ACID MOLECULE HAVING RNA INTERFERENCE EFFECT ON NEK10 VARIANT GENE, AND ANTICANCER AGENT” (Nippon Kayaku Kabushiki Kaisha, priority 2011, published 2015)
